Laboratory results from article PMC3579193, “Elucidation of relaxin-3 binding interactions in the extracellular loops of RXFP3” (Frontiers in Endocrinology, 2013).
Each block holds one substance with its values, some of them ahead of it. Ends that are not written are not given here.

Key:
RXFP4 over RXFP3 = settings: ref Zhu et al., 2008; cited from earlier work
Excerpt: (§1) Although residues in the peptides have been identified as critical for activity, the specific residues in the receptors that are interacting with these are unknown. […] In addition they determined that sites in transmembrane (TM) 2, 3, and 5 are involved in receptor activation by INSL5 ([Zhu et al., 2008]). None of the receptor chimeras resulted ...

HA-RXFP3 E245A (human) = HA-RXFP3 E245A (human) (UniProt Q9NSD7); assay: europium-labelled ligand binding on cells; specific binding of 5 nM Eu-H3/I5 to transfected HEK-293T cells in 96 well optiplates; non-specific binding with 1 uM unlabeled H3 relaxin; expressed as ratio of specific binding to cell surface expression, normalized to HA-RXFP3
HA-RXFP3 E77A (human) = HA-RXFP3 E77A (human) (UniProt Q9NSD7); assay: as above
rats = settings: central administration, ref McGowan et al., 2005, 2006, Ganella et al., 2012b; cited from earlier work
Excerpt: Relaxin-3 is involved in a wide range of behaviors, including feeding, stress responses, arousal, and cognitive processes ([Smith et al., 2011]). […] Relaxin-3 neuronal activity and production of relaxi ...

RXFP4 = settings: ref Liu et al., 2003a; cited from earlier work
Excerpt: Relaxin-3 is a member of the relaxin peptide family. Peptides from this family activate relaxin family peptide (RXFP) receptors, which are Type I or Class A G protein-coupled receptors (GPCRs). […] The rela ... || Based on the hypothesis that coevolution of relaxin-3 and RXFP3 occurred in vertebrates and that residues important for relaxin-3 binding and activation should therefore be conserved we performed multiple sequence alignments of all vertebrate RXFP3 sequences. […] Figure 1A highlights sequence alignments of representative mammalian species (human, chimpanzee, rat, mouse, platypus) and representative lower vertebrate species (Frog and Zebrafish) from this analysis compa ... || Based on the hypothesis that coevolution of relaxin-3 and RXFP3 occurred in vertebrates, and in the knowledge that the key relaxin-3 B-chain residues are conserved across all vertebrate species ([Wilkinson et al., 2005b]), we performed multiple sequence alignments of all vertebrate RXFP3 sequences to identify highly conserved residues in the ELs and NT domain that may be involved in relaxin-3 binding. […] We have focused on glutamic (E) and aspartic acid (D) residues ...

RXFP1 = settings: ref Sudo et al., 2003; cited from earlier work
Excerpt: Relaxin-3 is a member of the relaxin peptide family. Peptides from this family activate relaxin family peptide (RXFP) receptors, which are Type I or Class A G protein-coupled receptors (GPCRs). […] The rela ...

[1] = test system: chimeric RXFP3/4 receptors; settings: ref Zhu et al., 2008; cited from earlier work
Excerpt: as §1

Substance: INSL5: related insulin-like peptide-5, ligand of RXFP4 (Insulin-like peptide INSL5 B … KESVRLCGLEYIRTVIYICASSRW; Insulin-like peptide INSL5 A … QDLQTLCCTDGCSMTDLSALC; ends and bridges not checked; cysteine pairing not given here; UniProt Q9Y5Q6 23-46; Q9Y5Q6 115-135, looked up)
selectivity (RXFP4 over RXFP3): selectivity of INSL5 for RXFP4 over RXFP3

decrease in specific binding against HA-RXFP3 (HA-RXFP3 E245A (human)): 50% | loss of specific binding against HA-RXFP3 (HA-RXFP3 E77A (human)): 50%
Substance: mono-Eu-labeled relaxin-3 agonist H3 relaxin B-chain, INSL5 A chain (H3/I5) (ligand)

Substance: relaxin-3: highly conserved neuropeptide, member of the relaxin peptide family; endogenous ligand of RXFP3
effect on feeding (rats): increase feeding in rats | binding to and activation of RXFP4 (RXFP4): able to bind to and activate both RXFP4 | binding to and activation of RXFP1 (RXFP1): able to bind to and activate both RXFP4 ([Liu et al., 2003a]) and RXFP1 | effect of receptor chimeras on binding or activity [1]: None of the receptor chimeras resulted in appreciable changes in relaxin-3 binding or activity
